Patent US8518889B2, “Method of treating cancer with antibodies against long-form leukotriene B4 receptor BLT2” (Korea University Research & Business Foundation, priority 2007, dated 2013)

What was measured:
PWR-1E cells [1] = assay: cell cycle analysis / apoptosis measurement; assay type: cell-based; details: 5 μM, 48 hr
Experimental: After LNCaP cells and PWR-1E cells were treated with 5 μM LY255283 for 48 hr, the cells were fixed with 70% ethanol and stained with Pl. Cell cycle was analyzed using flow cytometry. The cells grown in 6-well cluster dishes were stimulated with 5 μM LY255283 for 48 h in serum free RPMI 1640. The cells which were collected by brief trypsinization were fixed for 12 hr with 70% ethanol at 4° C. The cells were resuspended in PBS containing RNase A (100 μg/ml) and incubated for 30 min at 37° C. The cells were stained with propidium iodide (50 μg/ml) (Sigma). Acquisition and analysis was performed by FACS using Cell Quest Alias software (BD Bioscience).

MCF-7 cells = assay: Western blot analysis of PARP and caspase-9; assay type: cell-based, human; details: LY255283 10 μM, epirubicin 100 ng/ml
LNCaP cells = assay type: cell-based, human; details: 5 μM, 48 hr
Experimental: DNA fragmentation was shown by the harvesting of total cellular DNA. Cells were grown in 10 cm plates to 70% confluence with 10% FBS-supplemented medium. Then the media was replaced with serum free RPMI 1640 and the cells were treated with 5 μM LY255283 for 48 hr. Cellular DNA from cells was extracted incubating with lysis buffer (1 mM EDTA, 10 mM Tris, 120 mM NaCl, 1% SDS and 100 μg/ml proteinase K, pH 8.0) for 12 hr at 50° C. The lysate was centrifuged for 10 min at 13,000×g to separate the fragment DNA. The supernatant was then extracted twice with phenol/chloroform/isoamyl alcohol and precipitated with absolute ethanol. […] After electrophoresis, gels were stained with ethidium bromide, and the DNA was visualized by UV light.

PWR-1E cells [2] = assay: cell counting with trypan blue; assay type: cell-based; details: 1 μM and 5 μM, serum free RPMI 1640
Experimental: The effect of LY255283 was observed by counting of cell number. The cells were grown in 6-well cluster dishes to 70% confluence with 10% FBS-supplemented medium. At day 0, the medium was replaced with serum free RPMI 1640 and cells were stimulated with DMSO or 1 μM and 5 μM LY255283. The cells were harvested at various intervals. Cells were washed with PBS and collected by brief trypsinization. Total cell number was determined by counting each sample in duplicate with a hemocytometer using trypan blue dye. The cells treated with LY255283 in serum free RPM11640 were harvested at various intervals. […] In contrast, PWR-1 E cells which expressed few level of BLT2 were not affected by LY255283.

Rat2-HO6 cells = assay: metastasis survival analysis (Kaplan-Meier); assay type: in vivo, nude mice; details: 2.5 mg/kg intraperitoneal, 7 weeks
Experimental: All experimental animals used in this study were treated according to guidelines approved by the Institutional Animal Care and Use Committee of Korea University. Female nude mice (Charles River, Wilmington, Mass.), four-weeks-old at the time of injection, were used in the experimental metastasis assay. Rat-2, Rat2-HO6, and Rat2-BLT2 cells (5×10^5 cells) were prepared for injection from cultures in logarithmic growth at the time of harvest. The cells were briefly treated with 0.025% trypsin and 0.1% EDTA in Hanks' balanced salt solution and quickly removed from trypsin by centrifugation, resuspended in saline containing LTB4, and injected within 1 hr in 0.1 ml into the lateral tail vein with a 26-gauge needle. For inhibitor experiments, U75302 and LY255283 (0.25 mg/kg for BLT1 antagonist and 2.5 mg/kg for BLT2 antagonist) was injected intraperitoneally 3 and 5 days after injection of cells that were pretreated with inhibitors. The mice were maintained under aseptic barrier conditions until they were sacrificed at 21 days after cell injection (n=8, each group) to identify pulmonary metastasis or to investigate the mortality of mice at the end of the experiment (7 weeks) (n=8, each group). Metastasis survival was analyzed in Kaplan-Meyer plots.

[3] = tested on: MDA-MB-231 breast cancer cells; assay: Matrigel invasion assay; assay type: cell-based, human; details: antibody 20 μg/ml, LY255283 10 μM, 48 h
Experimental: LF-BLT2 IgG Ab were also tested to determine if they had anti-BLT2-neutralizing effect in a cancer cell invasion assay. The migration of MDA-MB-231 breast cancer cells through Matrigel matrix gel in the presence of anti-LF-BLT2 was examined. The upper chamber of transwells (8.0-μm membrane pores; Costar) were coated with 2.5 μg/ml Matrigel matrix gel (BD Biosciences) and incubated at 37° C. for 2 hr. A total of 5×10^4 cells in 100 μl of medium with 0.5% FBS were added to the upper chamber and allowed to migrate toward the bottom chamber, which contained medium with 10% FBS as a chemoattractant. MDA-MB-231 cells were stopped at 48 hr. Cells on the top surface of the membranes were removed using a cotton swab, and cells on the underside were fixed in methanol and stained with hematoxylin and eosin (H&E).

[4] = tested on: acute lung injury induced by endotoxin; details: pigs; cited from earlier work
SV-HUC-1 cells [5] = assay: [3H]-thymidine incorporation assay; assay type: cell-based; details: 48 hr
Experimental: Cells were seed in 96-well plate at the density of 1.0×10^4/well. After 24 hr incubation in RPMI 1640 supplemented with 10% FBS, the media was replaced with RPMI 1640 containing 0.5% FBS for 12 hr. After cells were treated with different concentration BLT antagonists. Then [^3H]-thymidine (1 μCi/ml) (PerkinElmer Life Sciences) was added at 12 hr after antagonists treatment and after 36 hr of further incubation, cells were harvested on the filtermat (PerkinElmer Life Science) and filtermat was dried and packaged in the sample bag (PerkinElmer Life Science). Finally, Betaplate scint (PerkinElmer Life Science) was added to the filtermat, and the radioactivity was counted in a liquid scintillation counter (MicroBeta, Wallac/PerkinElmer). […] LY255283 inhibited proliferation by at least 50% at a concentration of 10 μM at 48 hr.

SV-HUC-1 cells [6] = assay: cell cycle analysis (PI, flow cytometry); assay type: cell-based; details: 48 hr, RPMI 1640 with 0.5% FBS
Experimental: The cells grown in 6-well plate were stimulated with 5 μM and 10 μM LY255283, 1 μM U75302 for 48 h in RPMI 1640 containing 0.5% FBS. The cells which were collected by brief trypsinization were fixed overnight with 70% ethanol at 4° C. The cells were resuspended in PBS containing RNase A (100 μg/ml) and incubated for 30 min at 37° C. The cells were stained with propidium iodide (50 μg/ml) (Sigma). Acquisition and analysis was performed by FACS using Cell Quest Alias software (BD Bioscience). […] Cells were treated with BLT antagonist for 48 hours and the cell cycle population was measured by flow cytometry. In brief, cells were plated in 6 well plate and then treated with LY255283, U75302 for 48 hr. At the end of the treatment, the cells were harvested and then centrifuged. The cells fixed in ice-cold 70% ethanol for 24 hr and centrifuged. The pellet were resuspended in 0.5 ml phosphate-buffered saline (PBS) and incubated with Pl 1 mg/ml treatment for 15 min.

Structure (SMILES) | apoptosis in prostate normal cells (PWR-1E cells [1]) | PARP cleavage (MCF-7 cells) | DNA fragmentation (LNCaP cells) | number of PWR-1E cells (PWR-1E cells [2]) | survival of mouse injected with Ras-oncogene expressing transformed cells (Rat2-HO6 cells) | invasion activity [3] | activation of neutrophils and acute lung injury induced by endotoxin [4] | inhibition of thymidine incorporation / cell proliferation (SV-HUC-1 cells [5]) | cell cycle (SV-HUC-1 cells [6])
CCc1cc(C(C)=O)c(O)cc1OCCCCCC(C)(C)c1nnn[nH]1 [LY255283, 1-[5-ethyl-2-hydroxy-4-[[6-methyl-6-(1H-tetrazol-5-yl)heptyl]oxy]phenyl]-ethanone] | but not prostate normal cells | PARP cleavage was detectable | A smear of different sizes of DNA fragments was observed | not affected | extended the survival | showed inhibitory activity | limits activation of neutrophils and prevents acute lung injury |  | 
CCCCC/C=C\C[C@@H](O)/C=C/c1cccc(C[C@@H](O)CCCCO)n1 [U75302] |  |  |  |  |  |  |  | not effect | not effect
